{"source": "patent US7022721B1", "about": "“Method and composition for rejuvenating cells, tissues, organs, hair and nails” (priority 2001, dated 2006)", "key": {"[1]": {"system": "Non-enzymatically browned BSA (AGE-BSA) coupled to Collagen Type-I coated plates", "assay": "Assay of Uncoupling Activity on non-enzymatically browned BSA coupled to collagen coated plates (ELISA)", "type": "biochemical", "details": "for % uncoupling at 5 mM, 1 day: naphthothiazolium test compounds; for % uncoupling at 10 mM, 2 days / % uncoupling at 20 mM, 1 day: sugar-mediated coupling of albumen to collagen", "method": "Assay of Uncoupling Activity on Non-Enzymattically Browned BSA Coupled to Collagen Coated Plates\nEquipment, Reagents, and Other Materials\nMix equal volume of BSA (50 mg/ml in 1×PBS) and glucose (0.5 M in PBS); keep the solution (after filtered through a 0.22 µm filter and placed in a capped bottle) in a 37° C. incubator for 5 weeks.\nRemove an aliquot of the solution and dialyze against 500-fold volume of PBS, with 4 changes of buffer within 2 days. Collect the solution, as AGE-BSA, from dialysis bag and determine the protein concentration. […] During this hour, • Rinse the plate washer with autoclaved dH2O and then flush 3 times with PBS-Tween washing buffer containing 0.05% of Tween-20. • Dilute AGE-BSA in 1×PBS to 0.03 g/l. […] (Record the hours of incubation.) • In the meantime, run maintenance program (Overnight rinse/soak) on the plate washer using autoclaved distilled H2O. • After incubation, flush the plate washer 3 times with PBS-Tween washing buffer. • Wash the plate 4 times with 1×PBS buffers containing 0.2% Tween-20. • Wash 6 more times with PBS-0.05% Tween washing buffer in two directions, 3 times/direction. • Prepare 1:8000 dilution (in 1×PBS) of anti-BSA antibody (rabbit IgG-HRP) • Add 50 1 of diluted antibody to the wells, incubate at room temperature for 30 min. • Wash 8 times with PBS-0.05% Tween washing buffer in two directions, 4 times/direction. • Add 100 1 of TMB substrate solution to the wells; incubate at RT for 15 min. • Stop the reaction by adding 100 1 of 2 M H2SO4. • Read absorbance at 450 nm in an ELISA plate reader. • Plot and analyze data."}, "[2]": {"assay": "Hair stress vs. strain relationship (stiffness) before and after treatment", "description": "Methodology for Determination of Hair Stress vs. Strain Relationship (Stiffness).\nThe distensibility (i.e, elasticity, rigidity, shear, tensile strength, compression, etc.) of hair, nails, tendons, etc. can be easily determined using widely available commercial devices, such as manufactured by Instron. Alternatively, other test methods known to a practitioner of the art may be employed.\nThe test assay for determining whether hair has been “rejuvenated” for the present invention is the following. Individual scalp hairs were cemented into the ends of glass capillary tubes such that several centimeters of the shaft protruded from the end. This hair was then trimmed to extend 18 mm from the end of the tube. […] Thus, this determination of stress vs strain of bending assessed elasticity, compressibility, and shear of each hair shaft. Each hair served as its own control, with baseline and post-treatment properties assessed and directly compared.\nA 1 mm thick plate with a 0.5 mm diameter hole drilled through was attached to the surface of an isometric strain gauge. […] The force required to bend each hair a specified distance was determined over a wide range of displacements. […] For purposes of the present invention, the term “rejuvenated” hair shall mean an improvement of at least 20% in the measured values of the treated hair, toward the values seen in young, undamaged hair (i.e. healthy human). […]"}}, "note": "Values joined by “and” are separate entries in the source; they are usually repeats but may differ in a detail not shown here. Equal entries are not always repeated. Structures can show the parent of a compound that is named as a salt.", "data": [{"compound": "N#CCc1cccc[n+]1CC(=O)N1CCCC1.[Cl-]", "values": [{"measurement": "melting point", "value": "130 to 132", "unit": "°C"}]}, {"compound": "Cc1c(O)c2ccccc2c2c1sc(=NC(C)C)n2CCCN(C)C.Cl.Cl", "note": "[1,2-dihydro-1-[3-(dimethylamino)propyl]-4-methyl-2-[(1-methylethyl)imino]naphtho[1,2-d]thiazol-5-ol dihydrochloride]", "values": [{"measurement": "% uncoupling at 5 mM, 1 day", "setting": "[1]; 1 day", "value": 19, "unit": "%"}]}, {"compound": "O=C(Cn1cc[n+](CC(=O)c2ccccc2)c1)c1ccccc1.[Br-]", "note": "[1,3-bis(2-oxo-2-phenylethyl)imidazolium bromide]", "values": [{"measurement": "% uncoupling, 1 day (footnote b: at 10 mM)", "setting": "[1]; 10 mM, 1 day", "value": "25^b %"}]}, {"compound": "N#CCc1cccc[n+]1CC(=O)N1CCCC1.[Br-]", "note": "[1-[2-(1-pyrrolidinyl)-2-oxoethyl]-2-(cyanomethyl)pyridinium bromide]", "values": [{"measurement": "% uncoupling at 10 mM, 2 days", "setting": "[1]; 10 mM", "value": 68, "unit": "%"}]}, {"compound": "CCN=c1sc2c(C)c(O)c3ccccc3c2n1CC.Cl", "note": "[1-ethyl-2-(ethylimino)-1,2-dihydro-4-methylnaphtho[1,2-d]thiazol-5-ol monohydrochloride]", "values": [{"measurement": "% uncoupling at 5 mM, 1 day", "setting": "[1]; 1 day, monohydrochloride", "value": "59% and 58%"}, {"measurement": "stiffness of hair after treatment", "setting": "[2]; FIG. 1", "value": "decreases the stiffness of hair"}, {"measurement": "resulting stress less than before treatment (hair stiffness)", "setting": "[2]; hair immersed in 10 mM solution for 15 minutes, strain greater than about 0.06", "value": "about 50%"}]}, {"compound": "Cc1sc2[n+](c1C)C=C(c1ccccc1)OC2C.[Br-]", "note": "(stereo not shown) [2,3,8-Trimethyl-6-phenyl-8H-thiazolo[2,3-c](1,4)oxazin-4-ium bromide]", "values": [{"measurement": "% uncoupling at 20 mM, 1 day", "setting": "[1]; 1 day", "value": 34, "unit": "%"}]}, {"compound": "Cc1csc(C)[n+]1CC(=O)c1ccccc1.[Br-]", "note": "[2,4-Dimethyl-3-(2-oxo-2-phenylethyl)thiazolium bromide]", "values": [{"measurement": "% uncoupling at 10 mM, 2 days", "setting": "[1]; 10 mM", "value": 36, "unit": "%"}, {"measurement": "% uncoupling at 20 mM, 1 day", "setting": "[1]; 1 day", "value": 51, "unit": "%"}]}, {"compound": "CC(O)c1scc[n+]1CC(=O)N1CCCC1.[Cl-]", "note": "(stereo not shown) [2-(1-hydroxyethyl)-3-[2-oxo-2-(1-pyrrolidinyl)ethyl]thiazolium chloride]", "values": [{"measurement": "% uncoupling at 10 mM, 2 days", "setting": "[1]; 10 mM", "value": 32, "unit": "%"}]}, {"compound": "Cc1c(O)c2ccccc2c2c1sc(NC1CCCCC1)[n+]2CCCN1CCN(C)CC1.[Cl-]", "note": "[2-(Cyclohexylimino)-1,2-dihydro-4-methyl-1-[3-(4-methyl-1-piperazinyl)propyl]naphtho[1,2-d]thiazol-5-ol trihydrochloride]", "values": [{"measurement": "% uncoupling at 5 mM, 1 day", "setting": "[1]; 1 day", "value": 21, "unit": "%"}]}, {"compound": "Cc1c(O)c2ccccc2c2c1sc(NC1CCCCC1)[n+]2CCCN1CCOCC1", "note": "[2-(Cyclohexylimino)-1,2-dihydro-4-methyl-1-[3-(4-morpholino)propyl]naphtho[1,2-d]thiazol-5-ol dihydrochloride]", "values": [{"measurement": "% uncoupling at 5 mM, 1 day", "setting": "[1]; 1 day", "value": 22, "unit": "%"}]}, {"compound": "CCc1scc(C)[n+]1CC(=O)c1ccccc1.[Br-]", "note": "[2-Ethyl-4-methyl-3-(2-oxo-2-phenylethyl)thiazolium bromide]", "values": [{"measurement": "% uncoupling at 20 mM, 1 day", "setting": "[1]; 1 day", "value": 57, "unit": "%"}]}, {"compound": "Cc1nc2c(c[n+]1CC(=O)c1ccccc1)CNC(=O)N2.[Br-]", "note": "[2-Methyl-3-(2-oxo-2-phenylethyl)-7-oxo-5,6,7,8-tetrahydropyrimidino [4,5-d]pyrimidin-3-ium bromide]", "values": [{"measurement": "% uncoupling, 1 day (footnote a: at 30 mM)", "setting": "[1]; 1 day", "value": "22^a %"}]}, {"compound": "O=C(C[n+]1ccccc1Cc1ccccc1)c1ccccc1.[Br-]", "note": "[2-benzyl-1-(2-oxo-2-phenylethyl)pyridinium bromide]", "values": [{"measurement": "% uncoupling at 20 mM, 1 day", "setting": "[1]; 1 day", "value": 54, "unit": "%"}]}, {"compound": "CC(OC(=O)c1ccccc1)c1scc[n+]1CC(=O)c1ccccc1.[Br-]", "note": "(stereo not shown) [3-(2-Oxo-2-phenylethyl)-2-(1-benzoyloxyethyl)thiazolium bromide]", "values": [{"measurement": "% uncoupling at 20 mM, 1 day", "setting": "[1]; 1 day", "value": 68, "unit": "%"}]}, {"compound": "CC(O)c1scc[n+]1CC(=O)c1ccccc1.[Br-]", "note": "(stereo not shown) [3-(2-Oxo-2-phenylethyl)-2-(1-hydroxyethyl)thiazolium bromide]", "values": [{"measurement": "% uncoupling at 10 mM, 2 days", "setting": "[1]; 10 mM", "value": 54, "unit": "%"}]}, {"compound": "CC(=O)OC(C)c1scc[n+]1CC(=O)N1CCCC1.[Br-]", "note": "(stereo not shown) [3-[2-Oxo-2-(1-pyrrolidinyl)ethyl]-2-(1-acetoxyethyl)thiazolium bromide]", "values": [{"measurement": "% uncoupling at 20 mM, 1 day", "setting": "[1]; 1 day", "value": 46, "unit": "%"}]}, {"compound": "CC(=O)OC(C)c1scc[n+]1CC(=O)c1ccccc1.[Br-]", "note": "(stereo not shown) [3-[2-Oxo-2-phenylethyl]-2-(1-acetoxyethyl)thiazolium bromide]", "values": [{"measurement": "% uncoupling at 20 mM, 1 day", "setting": "[1]; 1 day", "value": 52, "unit": "%"}]}, {"compound": "CC(O)c1scc[n+]1CC(=O)O", "note": "(stereo not shown) [3-carboxymethyl-2-(1-hydroxyethyl)thiazole]", "values": [{"measurement": "% uncoupling at 20 mM, 1 day", "setting": "[1]; 1 day", "value": 47, "unit": "%"}]}, {"compound": "Cc1sc[n+](CC(=O)c2ccccc2)c1C.[Cl-]", "note": "[4,5-Dimethyl-3-(2-oxo-2-phenylethyl)thiazolium chloride, reference compound]", "values": [{"measurement": "% uncoupling at 10 mM, 2 days", "setting": "[1]; 10 mM", "value": 52, "unit": "%"}, {"measurement": "% uncoupling at 20 mM, 1 day", "setting": "[1]; 1 day", "value": 39, "unit": "%"}]}, {"compound": "Cc1sc(C(C)O)[n+](CC(=O)c2ccccc2)c1C.[Br-]", "note": "(stereo not shown) [4,5-dimethyl-2-(1-hydroxyethyl)-3-(2-oxo-2-phenylethyl)thiazolium bromide]", "values": [{"measurement": "% uncoupling at 20 mM, 1 day", "setting": "[1]; 1 day", "value": 45, "unit": "%"}, {"measurement": "melting point", "value": "174 to 176", "unit": "°C"}]}, {"compound": "Cc1c(O)c2ccccc2c2nc(NCCCN3CCOCC3)sc12", "note": "[4-Methyl-2-[[3-(4-morpholino)propyl]amino]naphtho[1,2-d]thiazol-5-ol dihydrochloride]", "values": [{"measurement": "% uncoupling at 5 mM, 1 day", "setting": "[1]; 1 day", "value": 36, "unit": "%"}]}, {"compound": "CC1OC(=O)C[n+]2ccsc21.[Br-]", "note": "(stereo not shown) [5,6-Dihydro-8-methyl-6-oxo-8H-thiazolo[2,3-c](1,4)oxazin-4-ium bromide]", "values": [{"measurement": "% uncoupling, 1 day (footnote a: at 30 mM)", "setting": "[1]; 1 day", "value": "36^a %"}, {"measurement": "melting point", "value": "214 to 215.5", "unit": "°C"}]}]}
